{"source": "patent US7605168B2", "about": "(Plexxikon, Inc., priority 2004, dated 2009)", "assay_type_in_all_cases": "biochemical", "key": {"[1]": {"biological_target": "T1, PDE4B2: full-length human PDE4B2 isozyme (Homo sapiens, UniProt Q07343)", "T1 construct": "made in house; host or cells: baculovirus infected insect cells (pFastBacHT)", "T1 sequence (Q07343 with tags, fused parts or gaps isoform Q07343-2)": "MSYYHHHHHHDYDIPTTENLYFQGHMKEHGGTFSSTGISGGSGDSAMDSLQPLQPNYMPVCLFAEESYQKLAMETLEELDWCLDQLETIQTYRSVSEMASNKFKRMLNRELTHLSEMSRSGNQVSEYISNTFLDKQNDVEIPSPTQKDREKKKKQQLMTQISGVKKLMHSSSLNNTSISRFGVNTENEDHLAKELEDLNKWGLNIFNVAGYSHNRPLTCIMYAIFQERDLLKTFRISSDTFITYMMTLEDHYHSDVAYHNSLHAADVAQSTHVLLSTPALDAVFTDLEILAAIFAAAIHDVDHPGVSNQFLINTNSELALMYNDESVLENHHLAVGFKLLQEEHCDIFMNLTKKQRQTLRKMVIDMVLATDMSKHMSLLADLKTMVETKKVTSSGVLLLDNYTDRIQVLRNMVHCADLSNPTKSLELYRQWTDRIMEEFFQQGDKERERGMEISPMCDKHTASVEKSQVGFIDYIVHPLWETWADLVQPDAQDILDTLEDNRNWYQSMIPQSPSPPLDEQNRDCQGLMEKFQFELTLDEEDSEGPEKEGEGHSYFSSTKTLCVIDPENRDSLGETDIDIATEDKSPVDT", "assay": "PDE4 IC50 determination by Scintillation Proximity Assay (SPA), full-length PDE4B2", "conditions": "cell lysate, [3H]cAMP SPA", "summary_of_the_method": "(§1)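 Unpurified enzyme from cell lysates (PDE4B2 2.5 μl, PDE4D5 0.083 μl of 50% glycerol stock/ml) hydrolysing [3H]cAMP in 50 mM Tris pH 7.5, 8.3 mM MgCl, 1.7 mM EGTA, 0.01% BSA, 30 min at 30 °C. Stopped with yttrium silicate SPA beads in 18 mM ZnSO4; bead-bound [3H]AMP counted. IC50 by non-linear regression.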"}, "[2]": {"biological_target": "T2, PDE4D: catalytic domain S316-V692 (Homo sapiens, UniProt Q08499)", "T2 construct": "pET15S PDE4D S316-V692-X; His6 (N, cleaved yes); thrombin cleavage site (N, cleaved yes); made in house; host or cells: E. coli BL21 (DE3) RIL", "T2 sequence (Q08499 380-756)": "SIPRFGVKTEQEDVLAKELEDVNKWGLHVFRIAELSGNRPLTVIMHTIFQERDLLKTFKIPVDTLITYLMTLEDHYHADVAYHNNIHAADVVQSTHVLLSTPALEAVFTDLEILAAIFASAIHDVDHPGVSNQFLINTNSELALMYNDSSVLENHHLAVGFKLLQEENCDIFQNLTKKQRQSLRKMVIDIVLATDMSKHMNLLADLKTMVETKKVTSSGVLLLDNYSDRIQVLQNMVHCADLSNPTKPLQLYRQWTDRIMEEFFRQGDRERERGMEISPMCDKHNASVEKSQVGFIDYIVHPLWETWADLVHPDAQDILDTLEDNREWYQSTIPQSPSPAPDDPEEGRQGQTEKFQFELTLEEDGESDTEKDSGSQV", "assay": "PDE4 IC50 determination by Scintillation Proximity Assay (SPA), PDE4D catalytic domain", "conditions": "[3H]cAMP SPA, 30 min at 30° C.", "method": "IC50s were determined by Scintillation Proximity Assay (SPA). The principle of the assay is based on the fact that cAMP, the PDE4 substrate, binds weakly to Yittrium Silicate SPA beads, whereas AMP, the product of PDE4 hydrolysis binds strongly. Thus, the extent of PDE4 hydrolysis of a sample of [^3H]cAMP can be measured because only the [^3H]AMP produced by PDE4 hydrolysis will bind to the SPA beads and produce a scintillation signal.\n[…] Enzyme was stored in 50% glycerol at −20°. See Example 144.\nCompounds tested (see Tables 5 for compounds and results) were 3-fold serially diluted 11 times in DMSO from a starting concentration of 4 mM or 40 μM, depending on compound potency. 1 μl of each dilution was transferred into duplicate wells of a white polystyrene 384-well assay plate (Corning #3710). In addition to the compound dilutions, each assay plate contained control wells with 1 μl of DMSO (to define 0% enzyme inhibition) or 1 μl of 200 μM roflumilast (to define 100% enzyme inhibition). Using a Beckman FX robot, 10 μl of [^3H] cAMP (Amersham TRK559) at […] in assay buffer (50 mM Tris, pH 7.5; 8.3 mM MgCl; 1.7 mM EGTA; 0.01% BSA) was transferred to each assay well. Next, 10 μl of PDE4 enzyme in assay buffer was added and the plates were shaken for 30 s. at 1000 rpm to start the cAMP hydrolysis reaction. The concentrations of enzyme used were: PDE4B, 80 ng/ml; PDE4D, 4 ng/ml; PDE4B2, 2.5 μl of 50% glycerol stock/ml; PDE4D5 0.083 μl of 50% glycerol stock/ml. Assay plates were covered and incubated for 30 min. at 30° C. Reactions were stopped by robotic addition of 10 μl of 5 mg/ml SPA beads (Amersham RPNQ0013) in 18 mM ZnSO4. The assay plates were covered with clear plastic film, centrifuged for 1 min. at 1000 RPM to settle the SPA beads, and counted using a Wallac TriLux scintillation counter. IC50's were calculated from the raw assay data by non-linear regression curve fitting using the Assay Explorer software package from MDL."}, "[3]": {"biological_target": "T3, PDE4B: catalytic domain of human PDE4B from S152-S528 (Homo sapiens, UniProt Q07343)", "T3 construct": "The catalytic domain of human PDE4B from S152-S528; His6 (N, cleaved yes); thrombin cleavage site (N, cleaved yes); made in house; host or cells: E. coli BL21 (DE3) RIL", "T3 sequence (Q07343 324-700)": "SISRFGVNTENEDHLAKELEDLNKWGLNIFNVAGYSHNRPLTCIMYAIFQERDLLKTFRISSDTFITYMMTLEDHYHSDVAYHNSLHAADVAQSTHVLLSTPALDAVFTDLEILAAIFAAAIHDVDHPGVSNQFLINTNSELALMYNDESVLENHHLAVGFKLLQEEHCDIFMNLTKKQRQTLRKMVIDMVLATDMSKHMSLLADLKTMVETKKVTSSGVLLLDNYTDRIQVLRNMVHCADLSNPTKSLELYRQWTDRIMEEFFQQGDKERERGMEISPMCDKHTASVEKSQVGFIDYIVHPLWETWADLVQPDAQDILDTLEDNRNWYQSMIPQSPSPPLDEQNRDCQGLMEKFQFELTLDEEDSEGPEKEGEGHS", "assay": "PDE4 IC50 determination by Scintillation Proximity Assay (SPA), PDE4B catalytic domain", "conditions": "[3H]cAMP SPA, 30 min at 30° C.", "summary_of_the_method": "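Human PDE4B catalytic domain (80 ng/ml) hydrolysed [3H]cAMP in 50 mM Tris pH 7.5, 8.3 mM MgCl, 1.7 mM EGTA, 0.01% BSA for 30 min at 30 °C. Reaction was stopped with yttrium silicate SPA beads in 18 mM ZnSO4, and bound [3H]AMP was counted by scintillation. IC50 came from non-linear regression.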"}, "[4]": {"biological_target": "T4, PDE4D5: full-length human PDE4D5 isozyme (Homo sapiens, UniProt Q08499)", "T4 construct": "made in house; host or cells: baculovirus infected insect cells (pFastBacHT)", "T4 sequence (Q08499 with tags, fused parts or gaps isoform Q08499-6)": "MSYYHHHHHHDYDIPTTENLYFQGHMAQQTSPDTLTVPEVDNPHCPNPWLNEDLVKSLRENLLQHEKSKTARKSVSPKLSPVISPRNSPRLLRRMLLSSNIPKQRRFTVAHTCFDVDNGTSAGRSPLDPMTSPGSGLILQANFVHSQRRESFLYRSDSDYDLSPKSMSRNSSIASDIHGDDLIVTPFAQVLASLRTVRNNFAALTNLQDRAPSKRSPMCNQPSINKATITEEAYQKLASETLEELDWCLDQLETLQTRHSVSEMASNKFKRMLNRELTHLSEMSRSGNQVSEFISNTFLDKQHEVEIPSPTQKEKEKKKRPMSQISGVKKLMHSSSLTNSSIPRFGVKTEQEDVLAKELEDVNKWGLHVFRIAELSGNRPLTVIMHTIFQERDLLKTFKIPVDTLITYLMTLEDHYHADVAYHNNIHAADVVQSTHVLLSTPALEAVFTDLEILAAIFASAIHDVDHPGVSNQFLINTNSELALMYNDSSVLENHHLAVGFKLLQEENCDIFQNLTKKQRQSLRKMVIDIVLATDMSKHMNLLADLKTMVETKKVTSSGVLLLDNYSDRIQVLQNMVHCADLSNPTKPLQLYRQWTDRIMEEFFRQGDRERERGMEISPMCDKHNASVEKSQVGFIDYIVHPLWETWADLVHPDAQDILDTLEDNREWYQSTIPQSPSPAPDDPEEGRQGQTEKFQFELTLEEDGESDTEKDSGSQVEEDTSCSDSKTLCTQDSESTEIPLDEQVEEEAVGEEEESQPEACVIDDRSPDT", "assay": "PDE4 IC50 determination by Scintillation Proximity Assay (SPA), full-length PDE4D5", "conditions": "cell lysate, [3H]cAMP SPA", "summary_of_the_method": "as §1"}}}
{"smiles": "CCOc1ccc2ccccc2c1C(=O)n1cc(-c2ccc(OC)c(OC)c2)c2cccnc21", "note": "[Compound 52, [3-(3,4-Dimethoxy-phenyl)-pyrrolo[2,3-b]pyridin-1-yl]-(2-ethoxy-naphthalen-1-yl)-methanone]", "values": [{"measurement": "IC50", "setting": "[1]", "result": "< 10", "unit": "µM"}, {"measurement": "IC50", "setting": "[2]", "result": "≤ 10", "unit": "µM"}, {"measurement": "IC50", "setting": "[3]", "result": "< 10", "unit": "µM"}, {"measurement": "IC50", "setting": "[4]", "result": "< 10", "unit": "µM"}]}
{"smiles": "CCOc1ccccc1C(=O)n1cc(-c2ccc(OC)c(OC)c2)c2cccnc21", "note": "[Compound 61, [3-(3,4-Dimethoxy-phenyl)-pyrrolo[2,3-b]pyridin-1-yl]-(2-ethoxy-phenyl)-methanone-amide]", "values": [{"measurement": "IC50", "setting": "[1]", "result": "< 10", "unit": "µM"}, {"measurement": "IC50", "setting": "[2]", "result": "≤ 10", "unit": "µM"}, {"measurement": "IC50", "setting": "[3]", "result": "< 10", "unit": "µM"}, {"measurement": "IC50", "setting": "[4]", "result": "< 10", "unit": "µM"}]}
